Data as given in patent US7037656B2, “Methods and compositions for identifying ligands for nuclear receptors” (priority 2000, dated 2006).

Assays:
Test in all cases: Yeast 6x EcRE-lacZ β-galactosidase transactivation assay
[1] = target: T1, Dm ΔN EcR +Cf ΔA/B USP + GRIP1 (Drosophila melanogaster, UniProt P34021); format: cell-based, Drosophila melanogaster; Choristoneura fumiferana; details: RH 5992 10 μM, 4 hours, DMSO control 0.235
T1 construct: ubiquitin (human, 76 aa) (N, cleaved yes); expressed in transfected cells
Description: (§1) Briefly, yeast cells are cultured in 5 mL of YPD liquid medium overnight at 30° C. The cell culture was diluted 1:20 in YPD media and further grown until cell density reached an O.D of 0.6. at OD600. The cells were pelleted by centrifugation and washed with 10 mL of TE+0.1M lithium acetate. Cells are then resuspended in 10 mL TE+0.1M lithium acetate and incubated at 30° C. for 1 hour. Cells are collected and resuspended in 0.5 mL of TE+ 0.1M lithium acetate. Aliquots of cells (50 μL), were incubated for 15 minutes at 30° C. with 1–2 μg plasmid DNA in the presence of 5 μg of denatured salmon sperm DNA as DNA carrier. In the case of co-transformation, the indicated plasmids were added simultaneously. 50% polyethyleneglycol of molecular weight 4000, diluted in TE, was added to a final concentration of 35%. […]
(§2) Using the transformation method set forth above, yeast were co-transformed with a reporter gene as shown in FIG. 2 and the expression vector encoding the full-length D. melanogaster ecdysone receptor, DmEcR (FIG. 3A) in the presence or absence of the Dm EcR heterodimer partner, DmUSP (FIG. 4A). […] As the N-terminal portion of the Dm EcR receptor is reported to play a role in ligand independent transactivation, an expression vector containing an N-terminal deletion in the EcR was constructed (see FIG. 3B) and assessed in the β-galactosidase assays described above. […]

[2] = target: T2, Dm ΔN EcR + Cf USP + GRIP1 (Drosophila melanogaster, UniProt P34021); format: cell-based, Drosophila melanogaster; Choristoneura fumiferana; details: RH 5992 10 μM, 4 hours, DMSO control 1.149
T2 construct: ubiquitin (human, 76 aa) (N, cleaved yes); expressed in transfected cells
Description: as §1, §2

[3] = system: Aa USPb; format: cell-based, Aedes aegypti; details: RH 5992 10 μM, 4 hours, DMSO control 0.196
Description: (§3) Briefly, yeast cells are cultured in 5 mL of YPD liquid medium overnight at 30° C. The cell culture was diluted 1:20 in YPD media and further grown until cell density reached an O.D of 0.6. at OD600. The cells were pelleted by centrifugation and washed with 10 mL of TE+0.1M lithium acetate. Cells are then resuspended in 10 mL TE+0.1M lithium acetate and incubated at 30° C. for 1 hour. Cells are collected and resuspended in 0.5 mL of TE+ 0.1M lithium acetate. Aliquots of cells (50 μL), were incubated for 15 minutes at 30° C. with 1–2 μg plasmid DNA in the presence of 5 μg of denatured salmon sperm DNA as DNA carrier. In the case of co-transformation, the indicated plasmids were added simultaneously. 50% polyethyleneglycol of molecular weight 4000, diluted in TE, was added to a final concentration of 35%. DMSO was added to the transformation solution simultaneously to a final concentration 3%. The samples were mixed well by vortexing and incubated for an additional 30 minutes at 30° C. The cell mixture is then heated for 15 minutes at 42° C. Cells were then collected and plated onto appropriate yeast selective media. Transformants of 4 plasmids are selected on the complete media without tryptophan, uracil, leucine and histidine.
(§4) The yeast cells grown overnight in selective liquid media at 30° C. were diluted in prewarmed liquid selective media to 0.1 at OD600 (ODculture). 100 μl of the cell culture was spiked to each well of a.96-well microtiter plate. Ligand (2 μl diluted in DMSO) was added to each well giving a final concentration of DMSO of 2%. As a control, 2 μl of DMSO were also added to additional test wells. The final concentration of the tested compounds in the media is 10 μM. The cells were incubated in the presence of ligand in a shaker at 30° C. After 4 hours of incubation, 100 μl of 2× “Z” Sarcosine-ONPG buffer (120 mM Na2HPO4, 80 mM NaH2PO4, 20 mM KCl, 2 mM MgSO4, 100 mM beta-mercaptoethanol (Sigma), pH 7.0, 0.4% lauroyl sarcosine (Sigma), 4 mg/mL ONPG (Diagnostic Chemicals limited) was added to each well and the plate was further incubated at 37° C. The 2× “Z” Sarcosine-ONPG buffer is freshly prepared or stored at −20° C. prior to use. After incubation at 37° C. for 1 hour. The reaction was stopped by adding 100 μL of quenching solution 0.5 M Na2CO3 and OD405 (ODreaction) and beta-galactosidase activity was measured in a micro plate reader (Biotek) at a wave length of 405–450 nanometers. The effect of copper on enhancement of the transactivation response mediated by the ligands tested was studied by adding CuSO4 to the media to a final concentration of 10 μM.
(§5) Using the transformation method described above, yeast were co-transformed with a reporter gene as shown in FIG. 2 and the expression vector encoding the full-length Aedes aegypti ecdysone receptor, Aa EcR (FIG. 7A) in the presence or absence of the Aa EcR heterodimer partner, Aa USP (a or b form, FIGS. 8A and 8B respectively). Transformed cells were incubated with DMSO alone as a control, or with a proprietary ecdysone receptor ligand (Rohm & Haas tebufenozide[RH5992]) at final concentration 10 μM for 4 hours. The samples were then assayed for β-galactosidase activity as described above. […] As the N-terminal portion of the AaEcR receptor is reported to play a role in ligand independent transactivation, an expression vector containing an N-terminal deletion in the Aa EcR was constructed (see FIG. 7B) and assessed in the β-galactosidase assays described above. […] Restoration of ligand dependent transactivation was observed only when the AaΔN EcR, AaUSP (a or b forms) and co-activator GRIP1 were coexpressed. As in the Drosophila system, the data obtained indicate that the efficiency of ligand-dependent transactivation of the ecdysone receptor in mosquito A. aegypti is dependent on the both heterodimer formation of EcR/USP and also upon proper interaction with co-activator GRIP1.

[4] = system: Aa EcR + Aa USPa; format: cell-based, Aedes aegypti; details: RH 5992 10 μM, 4 hours, DMSO control 2.300
Description: as §3, §4, §5

[5] = system: Aa ΔA/B EcR + Aa ΔA/B USP + GRIP1; format: cell-based, Aedes aegypti; details: RH 5992 10 μM, 4 hours, DMSO control 0.194
Description: as §3, §4, §5

[6] = system: Aa ΔA/B EcR + Aa USPa; format: cell-based, Aedes aegypti; details: 4 hours
Description: as §3, §4, §5

[7] = system: Aa USPa; format: cell-based, Aedes aegypti; details: RH 5992 10 μM, 4 hours, DMSO control 0.210
Description: as §3, §4, §5

[8] = system: Aa EcR + Aa USPb; format: cell-based, Aedes aegypti; details: RH 5992 10 μM, 4 hours, DMSO control 3.000
Description: as §3, §4, §5

T1 sequence (P34021 221-878, stated change not applied): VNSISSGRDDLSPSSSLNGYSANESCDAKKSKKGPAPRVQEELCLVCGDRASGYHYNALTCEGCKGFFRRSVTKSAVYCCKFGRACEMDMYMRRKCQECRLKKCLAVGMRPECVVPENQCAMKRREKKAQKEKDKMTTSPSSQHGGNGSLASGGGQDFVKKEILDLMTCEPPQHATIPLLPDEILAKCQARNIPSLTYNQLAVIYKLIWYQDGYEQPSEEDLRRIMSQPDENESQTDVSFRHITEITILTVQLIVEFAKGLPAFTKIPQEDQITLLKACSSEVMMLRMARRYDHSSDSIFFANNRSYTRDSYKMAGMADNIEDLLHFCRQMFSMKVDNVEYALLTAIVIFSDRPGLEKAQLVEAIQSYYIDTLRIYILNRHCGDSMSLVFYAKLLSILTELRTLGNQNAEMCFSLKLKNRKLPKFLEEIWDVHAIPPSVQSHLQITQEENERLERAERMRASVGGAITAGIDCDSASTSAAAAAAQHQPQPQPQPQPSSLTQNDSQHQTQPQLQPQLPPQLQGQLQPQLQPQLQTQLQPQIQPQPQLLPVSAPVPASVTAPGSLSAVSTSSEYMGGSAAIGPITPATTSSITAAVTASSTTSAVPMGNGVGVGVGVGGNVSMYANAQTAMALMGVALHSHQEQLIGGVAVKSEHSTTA
T1 sequence (O76202 with tags, fused parts or gaps partner): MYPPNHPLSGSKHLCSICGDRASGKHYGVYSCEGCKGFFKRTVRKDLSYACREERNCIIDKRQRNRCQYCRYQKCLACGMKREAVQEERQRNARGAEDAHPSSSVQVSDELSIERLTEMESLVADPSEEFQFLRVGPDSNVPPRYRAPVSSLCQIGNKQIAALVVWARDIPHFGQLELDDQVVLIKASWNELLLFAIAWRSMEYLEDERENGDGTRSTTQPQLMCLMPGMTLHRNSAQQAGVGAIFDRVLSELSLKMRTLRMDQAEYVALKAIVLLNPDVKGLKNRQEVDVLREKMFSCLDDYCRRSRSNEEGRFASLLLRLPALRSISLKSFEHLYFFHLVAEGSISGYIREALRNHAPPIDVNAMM
T2 sequence (P34021 221-878 limits assumed, stated change not applied): as the sequence (P34021 221-878, stated change not applied) above
T2 sequence (O76202 whole entry partner): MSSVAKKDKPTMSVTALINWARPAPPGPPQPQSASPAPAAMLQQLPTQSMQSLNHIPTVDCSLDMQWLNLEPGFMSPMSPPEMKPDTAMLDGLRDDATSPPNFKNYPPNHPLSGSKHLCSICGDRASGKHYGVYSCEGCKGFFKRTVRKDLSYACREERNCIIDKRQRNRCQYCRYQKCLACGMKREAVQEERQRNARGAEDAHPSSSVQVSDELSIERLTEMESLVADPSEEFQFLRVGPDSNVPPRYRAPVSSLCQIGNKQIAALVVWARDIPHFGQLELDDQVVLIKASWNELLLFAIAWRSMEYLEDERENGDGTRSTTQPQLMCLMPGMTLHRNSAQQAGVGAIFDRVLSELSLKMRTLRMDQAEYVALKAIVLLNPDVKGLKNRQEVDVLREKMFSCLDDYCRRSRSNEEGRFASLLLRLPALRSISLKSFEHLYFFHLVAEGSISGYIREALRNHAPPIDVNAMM
T2 sequence (Q61026 322-1121 partner limits assumed): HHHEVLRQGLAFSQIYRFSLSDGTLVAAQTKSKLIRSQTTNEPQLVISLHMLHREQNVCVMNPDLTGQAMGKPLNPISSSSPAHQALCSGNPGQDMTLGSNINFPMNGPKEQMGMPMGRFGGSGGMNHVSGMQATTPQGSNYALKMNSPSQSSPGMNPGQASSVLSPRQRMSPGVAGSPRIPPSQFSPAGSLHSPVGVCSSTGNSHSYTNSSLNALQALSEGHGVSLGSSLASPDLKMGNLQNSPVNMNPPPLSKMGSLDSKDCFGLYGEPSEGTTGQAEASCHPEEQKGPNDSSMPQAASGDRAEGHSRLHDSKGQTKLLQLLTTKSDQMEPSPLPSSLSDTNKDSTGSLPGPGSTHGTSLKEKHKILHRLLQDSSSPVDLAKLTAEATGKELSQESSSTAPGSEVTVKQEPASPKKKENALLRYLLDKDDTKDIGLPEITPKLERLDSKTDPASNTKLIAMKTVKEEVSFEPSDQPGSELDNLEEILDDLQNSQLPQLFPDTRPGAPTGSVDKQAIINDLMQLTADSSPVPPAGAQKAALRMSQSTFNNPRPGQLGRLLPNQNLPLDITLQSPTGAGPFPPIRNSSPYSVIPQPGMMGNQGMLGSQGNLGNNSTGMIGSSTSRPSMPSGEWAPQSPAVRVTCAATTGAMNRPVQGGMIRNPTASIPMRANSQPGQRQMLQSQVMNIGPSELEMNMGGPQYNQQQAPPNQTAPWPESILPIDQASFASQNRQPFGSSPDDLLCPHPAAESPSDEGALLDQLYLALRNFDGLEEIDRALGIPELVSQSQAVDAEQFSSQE

CCc1ccc(C(=O)NN(C(=O)c2cc(C)cc(C)c2)C(C)(C)C)cc1 [RH 5992, tebufenozide]
β-galactosidase activity [1]: 0.590 | β-galactosidase activity [2]: 1.409 | β-galactosidase activity [3]: 0.210 | β-galactosidase activity [4]: 2.453 | β-galactosidase activity [5]: 1.370 | transactivation of the reporter gene (in words) ([6]; 10 μM, Aa EcR with N-terminal deletion, Aa USP present or absent, no GRIP1): incapable of transactivating the reporter gene | β-galactosidase activity ([6]; RH 5992 10 μM, yeast, Aa ΔA/B EcR + Aa USPa, DMSO control 0.194): 0.209 | β-galactosidase activity [7]: 0.223 | β-galactosidase activity [8]: 2.700
